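Values below derive from 48-hour exposures of cells grown in 96-well plates, with endpoints linearly interpolated between the two concentrations bracketing the appropriate inhibition level. GI50: concentration for 50% inhibition of growth.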 The source made the active and inactive calls. No stated cut-off is given here; in the data, active = GI50 up to about 1.1 µM and inactive = higher.

Consider twelve molecules from ChEMBL document CHEMBL1201862, “PubChem BioAssay data set” (2004).

Among the test systems are TK-10; SK-MEL-28; UACC-62; HCC 2998; SK-MEL-2; CCRF-CEM; HOP-92; A549; Malme-3M; RXF 393; SNB-75; MOLT-4; HOP-62; HCT-116; NCI-H23; RPMI-8226; COLO 205; K562; HCT-15; KM-20L2.
Assay in all cases: DTP human tumour cell line panel, 48 h

With `COc1ccc2c(c1)CCN=C2Cc1cc(OC)c(OC)cc1CCCl`, the GI50 (usually the concentration at which growth is held to half of that of the control) is 35.7 µM (inactive) with TK-10; 66.2 µM (inactive) with SK-MEL-28; 53.8 µM (inactive) with UACC-62; 30.5 µM (inactive) with HCC 2998; > 100 µM (inactive) in the experiment with SK-MEL-2; > 100 µM (inactive) in the experiment with CCRF-CEM. For the same molecule, the GI50 was 11.1 µM (inactive) in the experiment with HOP-92; 96.4 µM (inactive) in the experiment with A549; 27.4 µM (inactive) in the experiment with Malme-3M; 24.9 µM (inactive) in the experiment with RXF 393; > 100 µM (inactive) with SNB-75; 54.8 µM (inactive) with MOLT-4. For the same molecule, the GI50 in the experiment on HOP-62 is 3.08 µM (inactive); with HCT-116, 44.5 µM (inactive); in the experiment on NCI-H23 it was 52 µM (inactive); in the experiment with RPMI-8226, 55 µM (inactive); in the experiment with COLO 205, 58.7 µM (inactive); with K562 it was 81.1 µM (inactive).

Take `O=C1NC2=C(CCCC/C2=N\O)C12CCCCC2`: the GI50 in the experiment with TK-10 is > 100 µM (inactive); with SK-MEL-28, > 100 µM (inactive); in the experiment with UACC-62, > 100 µM (inactive); with HCC 2998, > 100 µM (inactive); in the experiment on HCT-15 it was above 100 µM; in the experiment with A549, > 100 µM (inactive). In addition, the GI50 in the experiment on Malme-3M is > 100 µM (inactive); with RXF 393 it was > 100 µM (inactive); in the experiment on SNB-75, > 100 µM (inactive); with MOLT-4, 57.8 µM (inactive); in the experiment on HOP-62 it was > 100 µM (inactive); in the experiment with KM-20L2, > 100 µM (inactive). Further, the GI50 in the experiment with HCT-116, with NCI-H23 and with K562 was > 100 µM (inactive) in each case.

Take `Clc1cc2c(c(CSC3=NCN(CC4CC4)CN3)c1)OCOC2`: the GI50 with TK-10 is 17.2 µM (inactive); in the experiment on SK-MEL-28, 19.8 µM (inactive); in the experiment with UACC-62, 17.9 µM (inactive); with HCC 2998 it was 15.2 µM (inactive); in the experiment on HCT-15, 21.5 µM; with SK-MEL-2 it was 19.1 µM (inactive). Besides, the GI50 is 5.35 µM (inactive) in the experiment on CCRF-CEM; 37.6 µM (inactive) with HOP-92; 22.8 µM (inactive) in the experiment with A549; 18.2 µM (inactive) in the experiment on Malme-3M; 17.3 µM (inactive) in the experiment with RXF 393; 18.4 µM (inactive) in the experiment with SNB-75. The GI50 in the experiment on MOLT-4 was 22.5 µM (inactive); in the experiment with HOP-62, 21.9 µM (inactive); in the experiment with HCT-116 it was 18.5 µM (inactive); in the experiment on NCI-H23 it was 17.1 µM (inactive); with RPMI-8226 it was 12.1 µM (inactive); in the experiment with COLO 205, 13.6 µM (inactive). Besides, in the experiment on K562, the GI50 was 28.1 µM (inactive).

For the molecule `CCOC(=O)CC(=O)CSc1c(-c2ccccc2)c(=O)n(-c2ccccc2)c(=S)n1-c1ccccc1`, the GI50 in the experiment with TK-10 is > 100 µM (inactive); in the experiment with SK-MEL-28, > 100 µM (inactive); with UACC-62, > 100 µM (inactive); in the experiment on HCC 2998 it was > 100 µM (inactive); in the experiment on HCT-15 it was above 100 µM; with CCRF-CEM, 51.4 µM (inactive). The GI50 with HOP-92 was > 100 µM (inactive); in the experiment on A549 it was > 100 µM (inactive); in the experiment with Malme-3M, > 100 µM (inactive); in the experiment with RXF 393, > 100 µM (inactive); with SNB-75, > 100 µM (inactive); with MOLT-4, 38.9 µM (inactive). Besides, the GI50 in the experiment on HOP-62, in the experiment with HCT-116, in the experiment on NCI-H23, with COLO 205 and in the experiment on K562 was > 100 µM (inactive) throughout.

As for `N#CC1(C#N)C(=O)c2ccncc2C1=O`, the GI50 in the experiment on SK-MEL-28 was > 100 µM (inactive); with UACC-62 it was > 100 µM (inactive); in the experiment on HCC 2998 it was > 100 µM (inactive); with HCT-15, above 100 µM; in the experiment on SK-MEL-2, > 100 µM (inactive); in the experiment on CCRF-CEM, > 100 µM (inactive). Besides, the GI50 in the experiment with HOP-92, in the experiment on A549, in the experiment on Malme-3M, in the experiment on RXF 393, in the experiment with SNB-75 and in the experiment on HCT-116 was > 100 µM (inactive) throughout. Also, the GI50 in the experiment with NCI-H23, in the experiment on RPMI-8226, with COLO 205 and in the experiment on K562 was > 100 µM (inactive) each time.

As to `O=C1C(Cl)N(c2cccc(Cl)c2)C1c1c[nH]c2ccccc12` (stereo not drawn), the GI50 in the experiment on TK-10, in the experiment on SK-MEL-28, in the experiment on UACC-62, with SK-MEL-2, in the experiment on CCRF-CEM and with HOP-92 was > 100 µM (inactive) in each case. Moreover, the GI50 in the experiment on A549, in the experiment with Malme-3M, in the experiment on RXF 393, in the experiment with SNB-75, in the experiment with MOLT-4 and in the experiment with HOP-62 was > 100 µM (inactive) each time. Also, the GI50 in the experiment with KM-20L2, in the experiment with HCT-116, in the experiment on NCI-H23, in the experiment on RPMI-8226, in the experiment on COLO 205 and in the experiment on K562 was > 100 µM (inactive) each time.

Consider `O=C1C=CC2=[N+]([O-])C(c3ccccc3)(c3ccccc3)/C(=N\c3ccccc3)C2=C1`, for which the GI50 is 1.8 µM (inactive) in the experiment on TK-10; 2.1 µM (inactive) with UACC-62; 6.3 µM (inactive) with HCC 2998; 2.03 µM with HCT-15; 18.2 µM (inactive) with SK-MEL-2; 0.407 µM (active) with CCRF-CEM. Besides, the GI50 with HOP-92 was 1.7 µM (inactive); with A549, 15.4 µM (inactive); in the experiment on Malme-3M it was 2.29 µM (inactive); in the experiment with RXF 393, 1.6 µM (inactive); in the experiment with SNB-75, 3.22 µM (inactive); in the experiment on MOLT-4, 1.27 µM (inactive). Also, the GI50 in the experiment with HOP-62 was 14.6 µM (inactive); in the experiment with KM-20L2 it was 2.34 µM (inactive); in the experiment with HCT-116, 1.97 µM (inactive); in the experiment with NCI-H23 it was 2.38 µM (inactive); with RPMI-8226, 2.96 µM (inactive); in the experiment with K562, 2.1 µM (inactive).

For `Cc1ccc(Nc2n[nH]c(NS(=O)(=O)c3cc(C(=O)Nc4ccc(Cl)cc4)c(Cl)cc3S)n2)cc1`, the GI50 in the experiment with TK-10 is > 100 µM (inactive); in the experiment with SK-MEL-28, > 100 µM (inactive); in the experiment with UACC-62, > 100 µM (inactive); in the experiment on HCT-15, above 100 µM; in the experiment with CCRF-CEM, > 100 µM (inactive); in the experiment with A549, 99.8 µM (inactive). For the same molecule, the GI50 was 50.5 µM (inactive) with Malme-3M; 62.2 µM (inactive) in the experiment on RXF 393; > 100 µM (inactive) in the experiment with SNB-75; > 100 µM (inactive) in the experiment with MOLT-4; > 100 µM (inactive) in the experiment with HOP-62; > 100 µM (inactive) in the experiment on HCT-116. In addition, the GI50 in the experiment on NCI-H23, with RPMI-8226, in the experiment on COLO 205 and in the experiment on K562 was > 100 µM (inactive) throughout.

In the case of `C=C(C)[C@@H]1CCC2=C[C@H](CC(C)=CC3=CC(C)=C(O3)[C@@H]1OC)OC2=O`, the GI50 was 85.3 µM (inactive) in the experiment with TK-10; > 100 µM (inactive) in the experiment with SK-MEL-28; 29.7 µM (inactive) with UACC-62; > 100 µM (inactive) in the experiment with HCC 2998; above 100 µM in the experiment with HCT-15; 20.9 µM (inactive) in the experiment with SK-MEL-2. The GI50 with CCRF-CEM is > 100 µM (inactive); in the experiment with HOP-92, 33.3 µM (inactive); in the experiment with A549, > 100 µM (inactive); with Malme-3M, > 100 µM (inactive); with RXF 393 it was 23.8 µM (inactive); with SNB-75 it was 63.5 µM (inactive). For the same molecule, the GI50 in the experiment on MOLT-4, in the experiment with RPMI-8226, with COLO 205 and in the experiment on K562 was > 100 µM (inactive) each time.

With `CC(=O)OCC1OC(OCCCCCCO)C(OC(C)=O)C(OC(C)=O)C1OC(C)=O` (stereo not drawn), the GI50 with TK-10 was > 100 µM (inactive); with SK-MEL-28 it was > 100 µM (inactive); in the experiment with UACC-62 it was > 100 µM (inactive); in the experiment on HCC 2998 it was > 100 µM (inactive); with HCT-15, above 100 µM; in the experiment on SK-MEL-2, > 100 µM (inactive). In addition, the GI50 in the experiment with CCRF-CEM, in the experiment on HOP-92, in the experiment on A549, in the experiment on RXF 393, with SNB-75 and with MOLT-4 was > 100 µM (inactive) in each case. Besides, the GI50 with HOP-62, in the experiment on HCT-116, with NCI-H23, in the experiment with RPMI-8226 and in the experiment with K562 was > 100 µM (inactive) in each case.

As to `COC(=O)C12CC3CC(CC(C(=O)O)(C3)C1)C2`, the GI50 is > 100 µM (inactive) with TK-10; > 100 µM (inactive) in the experiment with SK-MEL-28; > 100 µM (inactive) in the experiment with UACC-62; > 100 µM (inactive) with HCC 2998; above 100 µM in the experiment with HCT-15; > 100 µM (inactive) with CCRF-CEM. Also, the GI50 with HOP-92, in the experiment on A549, in the experiment on SNB-75, with MOLT-4, in the experiment on HOP-62 and with KM-20L2 was > 100 µM (inactive) in each case. The GI50 with HCT-116, in the experiment on NCI-H23, with RPMI-8226 and in the experiment on K562 was > 100 µM (inactive) in each case.

On to `CC(=O)O[C@]12CCCCCC1C1(O)C(O)CCCC[C@H]12` (stereo partly drawn), for which the GI50 with TK-10 is > 100 µM (inactive); with SK-MEL-28 it was > 100 µM (inactive); in the experiment with UACC-62 it was > 100 µM (inactive); with HCT-15, above 100 µM; with SK-MEL-2, > 100 µM (inactive); in the experiment on CCRF-CEM, > 100 µM (inactive). Also, the GI50 in the experiment on A549 is > 100 µM (inactive); in the experiment with Malme-3M it was > 100 µM (inactive); in the experiment with RXF 393 it was > 100 µM (inactive); in the experiment with SNB-75 it was 14.7 µM (inactive); in the experiment with MOLT-4 it was > 100 µM (inactive); with HOP-62 it was > 100 µM (inactive). For the same molecule, the GI50 in the experiment with KM-20L2, with NCI-H23, in the experiment on RPMI-8226, in the experiment on COLO 205 and in the experiment on K562 was > 100 µM (inactive) each time.
